Measurements as given in patent US20180116972A1, “Lipid based nanocarrier compositions loaded with metal nanoparticles and therapeutic agent” (UNIVERSITE DE BORDEAUX, priority 2015, published 2018).
Entries after “also recorded” stand apart in the source; their conditions may differ.

Experiments:
[1] = Stability of a suspension of iron oxide nanoparticles clusters encapsulated by a lipid (DOPC) versus a nucleolipid (DOTAU); settings: Milli-Q water, sonicated 3×15 minutes
Description: 75 μL of stock solution of (DOPC) (Avanti Polar ipids, 50 mg/mL in chloroform) and 20 μL of stock solution of iron oxide nanoparticles (10 mg/mL in chloroform) were mixed. The organic phase was added dropwise into the aqueous phase (2 ml of Milli-Q Water) placed in glass tube under stirring by vortex. Then the mixture was placed in a glass flask. Chloroform was removed under vacuum and the resulting crude material solution was sonicated 3 times (3×15 minutes) to give a precipitate.
The same protocol was followed, except that the nucleolipid N-[5′-(2′,3′-dioleoyl)uridine]-N′,N′,N′-trimethylammonium (DOTAU) was used instead of DOPC.

[2] = tested on: Platelet rich plasma (PRP); experiment: In vitro platelet aggregation (light transmission aggregometer); type: cell-based, healthy volunteers; settings: 37° C.
Description: Blood was obtained in 1/10th volume of 3.8% sodium citrate from healthy volunteers who had not taken any drugs known to affect platelet function for 2 weeks prior to the study. Platelet rich plasma (PRP) was prepared by centrifugation at 20° C. for 10-15 min at 150-200 g and stored at room temperature.
Platelet-poor plasma (PPP) was prepared by further centrifugation of the remaining plasma at 2700 g for 15 min and was used to calibrate the 100% light transmission of the aggregometer.
The percentage of aggregation was followed versus time. PRP (207 μL) was stirred in cuvette at 37° C. and agonists adenosine 5′-diphosphate (ADP) or thrombin receptor-activating peptide -6 (TRAP-6) were added at 5 s to promote platelet aggregation, and was incubated either with the DOU-PEG2000-based nanocarrier composition containing iron oxide nanoparticles and prostacyclin (PGI2) of example 2, or with the iron oxide nanoparticles clusters encapsulated by diC16dT of preparation 2 (used as negative control) or with the agonist(s) only (negative control) or with the agonist(s) and PGI2 (positive control) for 15 min and 3 h for evaluating PGI2 activity. The in vitro platelet aggregation was determined using a four-channel light transmission aggregometer (APACT 4004, ELITech, France).
The results are shown on FIG. 12, where the curves numbered 1 to 7 represent the following experimental conditions: […]

[3] = Size distribution measured by Dynamic Light Scattering (DLS); type: physicochemical

CCCCCCCC/C=C\CCCCCCCC(=O)O[C@@H]1[C@H](OC(=O)CCCCCCC/C=C\CCCCCCCC)[C@@H](C[N+](C)(C)C)O[C@H]1n1ccc(=O)[nH]c1=O [DOTAU, N-[5′-(2′,3′-dioleoyl)uridine]-N′,N′,N′-trimethylammonium]
colloidal stability of the iron oxide nanoparticle suspension after sonication [1]: did not give a precipitate; also recorded: stable colloïdal suspension

CCCCC[C@H](O)/C=C/[C@@H]1[C@H]2C/C(=C/CCCC(=O)O)O[C@H]2C[C@H]1O [PGI2, prostacyclin]
platelet aggregation induced by ADP ([2]; agonist ADP, 15 min incubation): totally inhibit | platelet aggregation induced by TRAP-6 ([2]; agonist TRAP-6, 3 h incubation): totally inhibit

APOA1: Apolipoprotein-A1 (Sigma Aldrich)
size distribution by number measured by DLS (d) [3]: 5.01 nm
